20 compounds from patent US9540358B2, “Tricyclic compounds as anticancer agents” (ICAHN SCHOOL OF MEDICINE AT MOUNT SINAI, priority 2011, dated 2017) can be followed below.

pIC50: −log10 of the molar value.

Holding throughout (assay type): cell-based
For one data set, the system named is H292 cells. Kind of data set: Colony formation (clonogenic) assay, H292. The note with it: 8 days. As to the method: (§1) Protocol for clonogenic assay follows Sangodkar et al. J Clin Invest 2012; 122:2637-51.
(§2) Cell culture and staining: For both A549luc and H292 cells, 500 cells were seeded into each well of a 6-well plate and allowed to attach for 24 hours before drug treatment. The following day, cells were treated with either the appropriate dose of drug or an equivalent volume of DMSO (two replicates were treated for each condition). For each condition, depleted media was replaced with fresh media containing the equivalent drug dose four days after initial treatment. Cells were harvested either 7 (A549luc) or 8 (H292) days after initial treatment. Briefly, media was aspirated from each well and the cells were washed twice with ice-cold PBS, then plates were allowed to dry at room temperature for 4 hours. Cells were fixed for one hour in a fixing solution consisting of 10% methanol and 10% glacial acetic acid in distilled water, then stained overnight in 1% (w/v) crystal violet dissolved in methanol. The next day, staining solution was aspirated from the wells and plates were washed gently with distilled water to remove excess stain before colony counting. Colonies were imaged on a ChemiDoc XRS+ (Bio-Rad) and images were exported as 8-bit TIFF files. Colonies were counted using the Colony Counter plugin in ImageJ, with colony size defined as between 4 and 400 square pixels, and minimum circularity set at 0.6. Duplicate wells were averaged to obtain a single value for each condition. Results (number of colonies) for A549luc cells are shown in Table 2 and results (number of colonies) for H292 cells are shown in Table 3: […]

In a further data set the test system is A549luc cells. Kind of data set: Colony formation (clonogenic) assay, A549luc. The note with it: 7 days. As to the method: as §1, §2
The subject of the next data set is H1650 lung cancer cells. Kind of data set: Cell viability assay (MTT, IC50 determination). The settings on record: MTT. As to the method:
(§3) 89(22): p. […] H1650 lung cancer cells were plated at 150,000 cells per well in a 12 well plate. Twenty-four hours after plating, cells were treated as described with increasing concentrations of drug and control. Forty-eight hours after drug treatment, cells were treated with 100 μL of 3-(4,5-Dimethylthiazol-2-yl)-2,5-diphenyltetrazolium bromide (MTT) and incubated for 2 hours at 37 C. The MTT solution was subsequently replaced with 300 μL of n-propyl alcohol and re-aliquoted to a 96 well plates. Spectrophotometric analysis of each solution was performed using a 96 well plate reader at 600 nm in triplicate.

The test system of another data set is naïve CD4 T cells. As to the kind of experiment: Treg induction from naïve CD4 T cells (Foxp3 expression). The note with it: 3 days, 2 ng/mL TGFβ. Here is the method:
Example 30 has been tested for its ability to induce Treg from naïve CD4 T cells. […] Fifty thousand CD4 naïve cells (CD62Lhi, CD25 low, CD4 positive) were incubated with 2 ng/mL TGFβ, 1 ug/mL anti-CD3, 100 ng/mL IL-2, 50000 APCs per well and the compounds 10 μM, 5 μM and 2.5 μM concentrations. The cells were incubated for 3 days and then stained for CD4 and Foxp3 expression. Results were expressed as fold increase over the % induced in control (DMSO) wells (typically 20-25% Foxp3+). AKTi, a small molecule AKT inhibitor, was used as a positive control; it induced about a 4-fold increase. […] The effects of Example 30 on iTreg induction are amplified as the TGFβ concentration decreases.

Data set [1] in a line: Cell viability assay (MTT, IC50 determination). The settings on record: human, H1650 lung cancer cells. Here is the method: as §3
The mark [2] stands for this setting: Homo sapiens, NCI-H1650, 48 hours after drug treatment.

For orientation: pIC50 means the negative decadic logarithm of the IC50, by convention in mol/L. As to `O=S(=O)(NC[C@H](O)CN1c2ccccc2CCc2ccccc21)c1ccc(OC(F)(F)F)cc1` [Example 75, (R)—N-(3-(10,11-dihydro-5H-dibenzo[b,f]azepin-5-yl)-2-hydroxypropyl)-4-(trifluoromethoxy)benzenesulfonamide], the number of colonies worked out at 109.5 in the data set on H292 cells (5 μM); 80 in the data set with H292 cells (7.5 μM); 47 in the data set on H292 cells (10 μM); 133.5 in the data set with A549luc cells (5 μM); 105 in the data set on A549luc cells (7.5 μM); 63.5 with A549luc cells (10 μM). The compound further had a pIC50 with H1650 lung cancer cells (setting [2]) of around 4.82.

As to `O=S(=O)(NC1CCCC(N2c3ccccc3CCc3ccccc32)C1)c1ccc(OC(F)(F)F)cc1` (centres unmarked) [Example 73, N-(3-(10,11-dihydro-5H-dibenzo[b,f]azepin-5-yl)cyclohexyl)-4-(trifluoromethoxy)benzenesulfonamide], the number of colonies in the data set with H292 cells (5 μM) was 40.5; in the data set with H292 cells (7.5 μM), 16.5; with H292 cells (10 μM), 7; in the data set with A549luc cells (5 μM) it was 2; in the data set on A549luc cells (7.5 μM) it was 0; with A549luc cells (10 μM) it was 0.

In turn, `O=S(=O)(NCCN1c2ccccc2Sc2ccc(Cl)cc21)c1ccc(Cl)cc1` [Example 27, 4-chloro-N-(2-(2-chloro-10H-phenothiazin-10-yl)ethyl)benzenesulfonamide] gave a pIC50 in the data set with H1650 lung cancer cells (setting [2]) of 4.70. Besides, the “fold increase in iTreg over control (DMSO) wells” value in the data set on naïve CD4 T cells (at 5 μM) came out at 2 fold.

Usually viability stands for the share of living cells, or the viability signal relative to a control. In turn, `O=S(=O)(NCCCN1c2ccccc2CCc2ccccc21)c1cccnc1` [Example 89] had a viability at 48 h, 40 µM in data set [1] (@ 40 μM) of 50%.

Take `O=S(=O)(NCCCN1c2ccccc2CCc2ccc(Cl)cc21)c1cnc(Cl)c(Br)c1` [Example 63, 5-Bromo-6-chloro-N-(3-(3-chloro-10,11-dihydro-5H-dibenzo[b,f]azepin-5-yl)propyl)pyridine-3-sulfonamide]: the viability at 48 h, 20 µM in data set [1] (@ 20 μM) was determined as 65%.

Regarding `O=S(=O)(NC[C@@H](O)CN1c2ccccc2CCc2ccccc21)c1ccc(OC(F)(F)F)cc1` [Example 74, (S)—N-(3-(10,11-dihydro-5H-dibenzo[b,f]azepin-5-yl)-2-hydroxypropyl)-4-(trifluoromethoxy)benzenesulfonamide], the number of colonies in the data set with H292 cells (5 μM) worked out at 85.5; in the data set on H292 cells (7.5 μM), 65.5; in the data set with H292 cells (10 μM), 46.5; with A549luc cells (5 μM), 135.5; with A549luc cells (7.5 μM), 118.5; in the data set on A549luc cells (10 μM), 96. Moreover, the pIC50 in the data set with H1650 lung cancer cells (setting [2]) is around 4.82.

With `O=C(CCCN1CCC(O)(c2ccc(Cl)cc2)CC1)c1ccc(F)cc1` [Haloperidol, reference compound], the “fold increase in iTreg (Foxp3+) over control (DMSO) wells” value in the data set with naïve CD4 T cells (control compounds, concentration not given) is reported as “did not induce a statistically significant increase”.

Compound `O=S(=O)(NCCN1c2ccccc2CCc2ccc(Cl)cc21)c1ccc(OC(F)(F)F)cc1` [Example 37, N-(2-(3-chloro-10,11-dihydro-5H-dibenzo[b,f]azepin-5-yl)ethyl)-4-(trifluoromethoxy)benzenesulfonamide] showed a pIC50 in the data set with H1650 lung cancer cells (setting [2]) of around 4.60.

Consider `O=C(CNS(=O)(=O)c1ccc(OC(F)(F)F)cc1)CN1c2ccccc2CCc2ccccc21` [Example 64, N-(3-(10,11-dihydro-5H-dibenzo[b,f]azepin-5-yl)-2-oxopropyl)-4-(trifluoromethoxy)benzenesulfonamide], for which the pIC50 with H1650 lung cancer cells (setting [2]) is around 4.46.

Consider `Nc1ccc2c(c1)N(CCCNS(=O)(=O)c1ccc(C(F)(F)F)cc1)c1ccccc1CC2` [Example 43, N-(3-(3-amino-10,11-dihydro-5H-dibenzo[b,f]azepin-5-yl)propyl)-4-(trifluoromethyl)benzenesulfonamide], for which the pIC50 with H1650 lung cancer cells (setting [2]) is around 4.46.

Consider `O=S(=O)(NCCCN1c2ccccc2CCc2ccc(Cl)cc21)c1ccccc1OC(F)(F)F` [Example 86], for which the “IC50 (Cell Viability Data)” value in the data set with H1650 lung cancer cells (48 hours after drug treatment) is listed as “INACTIVE”.

As to `O=S(=O)(NCCCN1c2ccccc2CCc2ccccc21)c1cnc(Cl)c(Br)c1` [Example 81, 5-bromo-6-chloro-N-(3-(10,11-dihydro-5H-dibenzo[V]azepin-5-yl)propyl)pyridine-3-sulfonamide], the “IC50 (Cell Viability Data)” value in the data set on H1650 lung cancer cells (48 hours after drug treatment) is “INACTIVE”.

As to `O=S(=O)(NCC(O)CN1c2ccccc2CCc2ccccc21)c1ccc(OC(F)(F)F)cc1` (centres unmarked) [Example 60, 4-Trifluoromethoxy-N-(3-(10,11-dihydro-5H-dibenzo[b,f]azepin-5-yl)-2-hydroxypropyl)benzenesulfonamide], the number of colonies with H292 cells (5 μM) amounted to 107; in the data set on H292 cells (7.5 μM), 105; in the data set with H292 cells (10 μM), 42; in the data set with A549luc cells (5 μM) it was 126.5; in the data set on A549luc cells (7.5 μM), 118.5; in the data set on A549luc cells (10 μM), 56. The negative logarithm of the IC50 (pIC50) in the data set on H1650 lung cancer cells (setting [2]) is around 4.82.

Turning to `O=S(=O)(NCCCN1c2ccccc2CCc2ccc(Cl)cc21)c1ccc(Cl)c(Cl)c1` [Example 29, 3,4-dichloro-N-(3-(3-chloro-10,11-dihydro-5H-dibenzo[b,f]azepin-5-yl)propyl)benzenesulfonamide], in the data set with H1650 lung cancer cells (setting [2]), the negative-log IC50 (pIC50) is around 4.60.

Compound `O=S(=O)(NCCCN1c2ccc(Cl)cc2CCc2cc(Cl)ccc21)c1ccc(Cl)cc1` [Example 52, 4-Chloro-N-(3-(2,8-dichloro-10,11-dihydro-5H-dibenzo[b,f]azepin-5-yl)propyl)benzenesulfonamide] had a pIC50 in the data set with H1650 lung cancer cells (setting [2]) of around 5.00.

In the data set on H1650 lung cancer cells (setting [2]), `CN(C)C(=O)NCCCN1c2ccccc2CCc2ccc(Cl)cc21` [Example 10, 3-(3-(3-chloro-10,11-dihydro-5H-dibenzo[b,f]azepin-5-yl)propyl)-1,1-dimethylurea] gave a pIC50 of 4.70.

In the case of `COC(=O)NCCCN1c2ccccc2CCc2ccc(Cl)cc21` [Example 9, Methyl (3-(3-chloro-10,11-dihydro-5H-dibenzo[b,f]azepin-5-yl)propyl)carbamate], the pIC50 in the data set with H1650 lung cancer cells (48 hours after drug treatment) was 4.52.

Consider `O=S(=O)(NCCCN1c2ccccc2CCc2cccc(Cl)c21)c1ccc(OC(F)(F)F)cc1` [Example 69, N-(3-(4-chloro-10,11-dihydro-5H-dibenzo[b,f]azepin-5-yl)propyl)-4-(trifluoromethoxy)benzenesulfonamide], for which the pIC50 in the data set with H1650 lung cancer cells (setting [2]) was around 4.70.

For `CC(CNS(=O)(=O)c1ccc(OC(F)(F)F)cc1)CN1c2ccccc2CCc2ccccc21` (centres unmarked) [Example 67, N-(3-(10,11-dihydro-5H-dibenzo[b,f]azepin-5-yl)-2-methylpropyl)-4-(trifluoromethoxy)benzenesulfonamide], in the data set with H1650 lung cancer cells (setting [2]), the pIC50 is around 4.70.

`O=S(=O)(NCCCN1c2ccccc2CCc2cccc(Cl)c21)c1ccc(Cl)cc1` [Example 70, 4-Chloro-N-(3-(4-chloro-10,11-dihydro-5H-dibenzo[b,f]azepin-5-yl)propyl)benzenesulfonamide] showed a pIC50 in the data set on H1650 lung cancer cells (setting [2]) of around 4.70.
